# Test results: US20250368648A1, “MULTI-CYCLIC IRAK AND FLT3 INHIBITING COMPOUNDS AND USES THEREOF” (CHILDREN'S HOSPITAL MEDICAL CENTER, priority 2022, published 2025)
# pIC50: −log10 of the molar value. Read-outs that look alike come from different tables or passages of the source.
# Assays:
# [1] = tested on: MOLM14-FLT3-ITD (D835Y) AML cells; experiment: Caspase-Glo 3/7 apoptosis assay, time course; type: cell-based; settings: 4.12 nM added to dose level 7 of Compound 106 with dose level 7 of venetoclax
# IRAK1 = molecular target: T1, IRAK1 (Homo sapiens, UniProt P51617); experiment: RBC HotSpot Kinase Assay, IRAK1; type: biochemical; settings: HotSpot functional assay, isolated kinase enzyme, 33P-ATP
# T1 construct: purchased RBC (Reaction Biology) HotSpot assay
# T1 sequence (P51617 whole entry): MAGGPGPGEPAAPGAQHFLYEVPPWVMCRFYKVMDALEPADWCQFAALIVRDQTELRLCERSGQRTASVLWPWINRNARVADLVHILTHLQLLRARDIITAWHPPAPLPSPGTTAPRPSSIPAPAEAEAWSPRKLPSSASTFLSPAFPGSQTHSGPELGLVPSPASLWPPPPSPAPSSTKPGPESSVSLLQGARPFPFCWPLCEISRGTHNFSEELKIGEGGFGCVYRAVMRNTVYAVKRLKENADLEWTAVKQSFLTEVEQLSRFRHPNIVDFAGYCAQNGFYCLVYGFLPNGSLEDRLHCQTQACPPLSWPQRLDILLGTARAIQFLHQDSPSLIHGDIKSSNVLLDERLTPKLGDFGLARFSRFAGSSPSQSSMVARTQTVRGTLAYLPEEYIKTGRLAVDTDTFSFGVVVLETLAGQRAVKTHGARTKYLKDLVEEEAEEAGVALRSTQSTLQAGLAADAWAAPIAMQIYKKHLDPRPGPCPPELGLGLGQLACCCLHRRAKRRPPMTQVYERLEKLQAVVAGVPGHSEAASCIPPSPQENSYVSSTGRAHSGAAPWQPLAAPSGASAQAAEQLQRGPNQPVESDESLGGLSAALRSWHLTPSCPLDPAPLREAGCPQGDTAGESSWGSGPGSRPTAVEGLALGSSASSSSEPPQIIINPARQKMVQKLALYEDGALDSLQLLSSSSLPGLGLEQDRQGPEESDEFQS
# Method in brief: (§1)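 Isolated kinases, possibly truncated or lacking regulatory receptor regions, were preincubated with compound for 20 min at room temp in 20 mM Hepes pH 7.5, 10 mM MgCl2, 1 mM EGTA, 2 mM DTT, 1% DMSO. Reactions were started with ^33P-ATP and run 2 h at room temperature; activity was read by P81 filter binding.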
# NF-κB = experiment: NF-kB assay in THP-1-Blue NF-κB cells (SEAP reporter); type: cell-based
# Protocol: THP-1-Blue NF-κB cells (InvivoGen) carrying a stable integrated NF-κB-inducible secreted embryonic alkaline phosphatase (SEAP) reporter construct were plated at a concentration of 1×10^5 cells per well. The cells were stimulated with Pam3CSK4 (1 ng/mL) or hIL1B (Ing/mL). After 10-20 minutes, the cells were then treated with vehicle (DMSO) or serial dilutions of the test compounds (10 doses tested for each test compound, with a 1:10 dilution series starting at 1 μM or 3 μM) with a final volume of 200 μL for 24 hours at 37° C. After 24 hours, the cells were centrifuged and 20 IL supernatant was incubated with 180 μL QUANTI-Blue reagent at 37° C. for 30-60 minutes. The levels of NF-κB-induced was measured in a microplate reader at 620 nm.
# MOLM14 D835Y cells = experiment: MOLM14 D835Y cell viability assay (Cell Titer Glo); type: cell-based; settings: Homo sapiens, MOLM-14, 48 h
# Protocol: The cell line has activated FLT3 receptors which carry additional resistance mutations in the kinase domain (D835Y).
# MOLM14 D835Y cells were grown in RPMI-1640 media supplemented with 20% fetal bovine serum (FBS). […] After cell addition, 23 nL of test compound were transferred into individual wells (22 doses tested for each test compound, with a 1:2 dilution series starting at 10 μM) via a 1536 pin-tool. Bortezomib (final concentration 2.3 μM) was used as a positive control for cell cytotoxicity.
# IRAK4 = molecular target: T2, IRAK4 (Homo sapiens, UniProt Q9NWZ3); experiment: RBC HotSpot Kinase Assay, IRAK4; type: biochemical; set-up: purchased RBC (Reaction Biology) HotSpot assay; settings: HotSpot functional assay, isolated kinase enzyme, 33P-ATP
# T2 sequence (Q9NWZ3 1-460): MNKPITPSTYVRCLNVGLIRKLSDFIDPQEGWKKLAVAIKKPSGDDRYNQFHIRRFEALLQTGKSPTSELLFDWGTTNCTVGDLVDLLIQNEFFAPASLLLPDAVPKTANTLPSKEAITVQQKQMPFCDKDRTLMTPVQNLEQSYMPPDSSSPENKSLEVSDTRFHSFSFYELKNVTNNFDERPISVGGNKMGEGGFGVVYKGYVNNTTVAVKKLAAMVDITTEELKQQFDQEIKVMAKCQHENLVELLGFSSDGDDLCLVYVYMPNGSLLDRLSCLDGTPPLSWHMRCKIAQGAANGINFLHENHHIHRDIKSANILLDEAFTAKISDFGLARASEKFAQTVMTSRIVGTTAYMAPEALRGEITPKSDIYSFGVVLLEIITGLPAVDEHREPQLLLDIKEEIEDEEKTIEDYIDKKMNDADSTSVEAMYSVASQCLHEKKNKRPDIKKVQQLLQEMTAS
# Method in brief: as §1
# FLT3 = molecular target: T3, FLT3 (Homo sapiens, UniProt P36888); experiment: RBC HotSpot Kinase Assay, FLT3; type: biochemical; set-up: purchased RBC (Reaction Biology) HotSpot assay; settings: HotSpot functional assay, isolated kinase enzyme, 33P-ATP
# T3 sequence (P36888 27-993): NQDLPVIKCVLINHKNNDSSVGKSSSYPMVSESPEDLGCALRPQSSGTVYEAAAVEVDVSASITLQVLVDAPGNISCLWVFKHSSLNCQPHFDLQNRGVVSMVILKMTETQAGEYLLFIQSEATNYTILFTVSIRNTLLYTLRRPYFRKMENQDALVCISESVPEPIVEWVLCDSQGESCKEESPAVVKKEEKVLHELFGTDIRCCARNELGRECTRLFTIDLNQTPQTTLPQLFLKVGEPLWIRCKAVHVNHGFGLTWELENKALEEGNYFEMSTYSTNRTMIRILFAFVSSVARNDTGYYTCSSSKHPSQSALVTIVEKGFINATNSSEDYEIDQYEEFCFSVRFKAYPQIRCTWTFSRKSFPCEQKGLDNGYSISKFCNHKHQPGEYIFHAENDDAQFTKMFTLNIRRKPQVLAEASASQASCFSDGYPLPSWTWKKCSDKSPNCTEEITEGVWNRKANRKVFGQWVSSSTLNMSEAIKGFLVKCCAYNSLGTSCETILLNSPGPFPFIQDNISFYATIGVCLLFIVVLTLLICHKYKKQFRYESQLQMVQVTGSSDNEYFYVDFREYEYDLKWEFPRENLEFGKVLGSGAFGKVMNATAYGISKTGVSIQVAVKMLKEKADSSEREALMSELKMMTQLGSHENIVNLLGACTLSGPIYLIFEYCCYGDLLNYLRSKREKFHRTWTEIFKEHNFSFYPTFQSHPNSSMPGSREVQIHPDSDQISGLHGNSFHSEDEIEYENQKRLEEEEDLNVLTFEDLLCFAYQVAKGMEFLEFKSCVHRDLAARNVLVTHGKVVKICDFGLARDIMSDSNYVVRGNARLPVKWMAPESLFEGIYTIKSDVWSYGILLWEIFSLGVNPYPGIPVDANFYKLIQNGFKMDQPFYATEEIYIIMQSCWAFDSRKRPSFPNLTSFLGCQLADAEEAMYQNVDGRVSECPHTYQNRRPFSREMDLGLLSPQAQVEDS
# Method in brief: as §1
# [2] = THP-1-Blue NF-κB cells stimulated with Pam3CSK4, 24 hours, read-out: NF-κB Pam3SCK4 IC50
# [3] = THP-1-Blue NF-κB cells stimulated with hIL1B, 24 hours, read-out: NF-κB IL1B IC50
Structure (SMILES),benefit of a third agent added to Compound 106 with venetoclax (apoptosis) [1],pIC50 (IRAK1),pIC50 (NF-κB; [2]),pIC50 (NF-κB; [3]),pIC50 (MOLM14 D835Y cells),pIC50 (IRAK4),pIC50 (FLT3)
"Nc1ncn([C@@H]2O[C@H](CO)[C@@H](O)[C@H]2O)c(=O)n1 [Compound 5-azacitdine, 5-azacitdine, reference compound]",little to no additional benefit,,,,,,
"COc1cc2ncc(-c3nc(N[C@H]4CNC[C@@H]4F)ccc3F)n2nc1C1CC1 [Compound 45a, 6-(6-cyclopropyl-7-methoxyimidazo[1,2-b]pyridazin-3-yl)-5-fluoro-N-((3S,4S)-4-fluoropyrrolidin-3-yl)pyridin-2-amine]",,7.43,7.36,7.35,7.70,> 9.30,> 9.30
"COc1cc2ncc(-c3ccc(F)c(N[C@H]4CNC[C@@H]4F)n3)n2nc1C1CC1 [Compound 46a, 6-(6-cyclopropyl-7-methoxyimidazo[1,2-b]pyridazin-3-yl)-3-fluoro-N-((3S,4S)-4-fluoropyrrolidin-3-yl)pyridin-2-amine]",,7.92,7.23,7.14,6.94,> 9.30,> 9.30
"COc1cc2ncc(-c3nc(N[C@H]4CNCC[C@@H]4F)ccc3F)n2nc1C1CC1 [Compound 47a, 6-(6-cyclopropyl-7-methoxyimidazo[1,2-b]pyridazin-3-yl)-5-fluoro-N-((3S,4S)-4-fluoropiperidin-3-yl)pyridin-2-amine]",,8.22,7.35,7.02,8.40,> 9.30,> 9.30
"COc1cc2ncc(-c3nc(N[C@H]4CNCC[C@@H]4F)c(F)cc3F)n2nc1C1CCO1 (stereo partly drawn) [Compound 74a, 3,5-difluoro-N-((3S,4S)-4-fluoropiperidin-3-yl)-6-(7-methoxy-6-(oxetan-2-yl)imidazo[1,2-b]pyridazin-3-yl)pyridin-2-amine]",,7.23,6.60,6.46,,8.52,> 9.30
"Oc1cc2ncc(-c3nc(N[C@@H]4CCCNC4)c(F)cc3F)n2nc1C1CC1 [Compound 75a, (R)-6-cyclopropyl-3-(3,5-difluoro-6-(piperidin-3-ylamino)pyridin-2-yl)imidazo[1,2-b]pyridazin-7-ol]",,6.33,5.76,5.64,,7.47,9.10
